In patent publication US9186361B2, “Compounds and compositions for the treatment of parasitic diseases” (Novartis AG, priority 2013, dated 2015) one finds EC50 data, which are given here for 17 compounds.

What all share (format): cell-based
Assay [1] deals with Trypanosoma cruzi amastigotes cultured in 3T3 fibroblast cells. The assay can be described thus: Assay for proliferation of kinetoplastid parasite Trypanosoma cruzi (beta-galactosidase/CPRG readout). Particulars: NIH3T3, 144 h, Tulahuen strain in 3T3 cells, 6 day incubation, read-out: T cruzi EC50. The text has this: Compounds of the invention can be assayed to measure their capacity to inhibit proliferation of kinetoplastid parasite Trypanosoma cruzi. The screening procedure is for identifying compounds with inhibitor activity against Trypanosoma cruzi amastigotes cultured in 3T3 fibroblast cells. The assay is done using the mammalian stage (amastigotes) of T. cruzi that replicates in the intracellular space of host cells. The host cells are initially infected with the culture-derived trypomastigotes that rapidly invade and then divide as amastigotes. The protocol uses the Tulahuen strain of T. cruzi that has been engineered to express the E. coli beta-galactosidase gene (Lac-Z) (Antimicr. Agents Chemoth. 40:2592, 1996). This allows for a colorimetric readout by using the substrate CPRG and an absorbance plate reader.
3T3 fibroblast cells are re-suspended in RPMI-1640 medium without phenol red medium supplemented with 10% FBS (heat inactivated), 100 μg/ml penicillin, and 100 μg/ml streptomycin. Forty μL of suspension (1,000 cells) is dispensed into 384-well plates and incubated overnight at 37° C. temperature and in atmosphere containing 5% CO2. The following day, 100 nL of compounds of the invention in DMSO are added to plate wells containing 3T3 cells. At the same time control compounds (benznidazole and nifurtimox) and DMSO are added to plates to serve as the positive and negative controls, respectively. After that, 10 μL of media containing 10,000 T. cruzi trypomastigotes are added to each plate well and plates are placed back into incubators. After 6 day incubation, 10 μL of reagent solution (0.6 mM CPRG, 0.6% NP-40 in PBS) is added to plates and incubated at room temperature for 2 hours. Absorbance is then measured on SpectraMax Gemini fluorimeter to determine relative number of T. cruzi cells present in each plate well. The percentage inhibition of 50%, EC50, is calculated for each compound.

Assay [2] has as its system L. donovani HU3 strain in mouse peritoneal macrophages. Put plainly: Proliferation of L. donovani in mouse peritoneal macrophages (SybrGreen, high-content imaging). Particulars: Leishmania donovani, Peritoneal macrophage, 120 h; infected mouse peritoneal macrophages, 5 days; read-out: L. donavani Macrophage EC50. From the text:
The activity of a compound according to the present invention for inhibition of parasitemai can be assessed by the parasite proliferation assay. The assay measures the increase in the parasite number in the assayed plate well using a DNA intercalating dye, SYBR Green I® dye (INVITROGEN) to stain Leishmania cell nuclei. It is understood that the assays illustrate the invention without in any way limiting the scope of the invention.
L. donovani HU3 strain is propagated by infecting BALBc mice through tail vein injection with 10^7 Leishmania parasites. Infected mice are allowed to develop infection during 9-11 weeks post-infection. During this time, the parasites accumulate in the infected mouse spleens to large numbers, and the infected mice serve as the source of parasites for the in vitro measurement of compound efficacies. To assay a compound for anti-leishmanial activity, peritoneal macrophages isolated from non-infected BALBc mice are seeded into 384-well plates at density 2×10^4 macrophages per well in 25 mL of medium (RPMI1640, 10% fetal serum albumin, 10 mM HEPES, 1 mM sodium pyruvate, 1% Pen/Strep). Subsequently, the seeded plates are placed into an incubator set to maintain 37° C. temperature and atmosphere with 5% CO2. The next day, Leishmania parasites are isolated from the spleens of mice infected for 9-11 weeks and 4×10^5 isolated parasites in […] of the above media are added to each plate well. Plates are then returned into incubators and infection is allowed to proceed for 24 hours. After the infection of macrophages is completed, […] of compounds of the invention in the above medium, which also contains 5% DMSO, are added to plate wells containing infected macrophages. At the same time control compounds (miltefosine and amphotericin B) and DMSO are added to plates to serve as the positive and negative controls, respectively. After the compound addition, the plates are returned into incubator and cells infected with parasites are cultured for 5 days. At the end of cultivation, […] of 8% paraformaldehyde is added to plate wells and incubated for 15 min at room temperature. Following the incubation, the paraformaldehyde from plate wells is aspirated, and […] of PBS containing 0.2% Triton X-100 is added to wells. After 15 min incubation, the solution is aspirated from wells again, and replaced with SybrGreen Dye solution in PBS (1:125,000 dilution). Infected cells are imaged with Evotec Opera high-content microscope, and the number of parasites in well is determined by counting parasite nuclei visualized by staining with SybrGreen dye. The percentage inhibition of 50%, EC50, is calculated for each compound.
The inhibitory efficacy of the compounds of the invention against proliferation of L. donovani in mouse peritoneal macrophages is provided in Table I.

The subject of assay [3] is Leishmania donovani axenic amastigote parasites. The assay can be described thus: Assay for Leishmania proliferation in vitro (axenic amastigotes, Cell TiterGlo). The following applies: 48 h, 2 day incubation, read-out: L. donovani amastigotes EC50. Here is the method:
Leishmania donovani axenic amastigote parasites are grown at 37° C., 5% CO2 in media made of RPMI 1640, 4 mM L-glutamine, 20% heat inactivated FBS, 100 units/ml of penicillin and 100 μg/ml of streptomycin, 23 μM Folic Acid, 100 μM Adenosine, 22 mM D-glucose, 25 mM MES. The pH of media is adjusted to 5.5 at 37° C. using HCl. 20 μL of media is first dispensed into 384 well plates and […] of the compounds of invention in DMSO are added to the plate wells. At the same time control compounds and DMSO are added to plates to serve as the positive and negative controls, respectively. 40 μL of parasite culture (9600 parasites) are then added to the plate wells. The plates are then placed into incubators. After 2 day incubation, 20 μL of Cell TiterGlo (Promega) is added to the plate wells. The luminescence signal of each well is measured using the Envision reader (Perkin Elmer). The percentage inhibition of 50%, EC50, is calculated for each of the compounds.

As for `O=C(Nc1ccc(Cl)c(-c2nc3ncc(NC(=O)N4CCCC4)cc3[nH]2)c1)c1ccco1` [Example 12, N-{2-[2-chloro-5-(furan-2-amido)phenyl]-1H-imidazo[4,5-b]pyridin-6-yl}pyrrolidine-1-carboxamide], the EC50 in assay [1] was 11 µM; in assay [2], above 26.1 µM; in assay [3] it was 2.34 µM.

As for `O=C(Nc1ccc(Cl)c(-c2nc3ncc(NCc4cccnc4O)cc3[nH]2)c1)c1ccco1` [Example 30], the 50% effective concentration (EC50) in assay [1] was above 20 µM; in assay [2], above 50 µM; in assay [3] it was above 25 µM.

For `CC(C)(C)OC(=O)NCCOC(=O)Nc1cnc2nc(-c3cc(NC(=O)c4ccco4)ccc3Cl)[nH]c2c1` [Example 16, tert-butyl N-{2-[({2-[2-chloro-5-(furan-2-amido)phenyl]-1H-imidazo[4,5-b]pyridin-6-yl}carbamoyl)oxy]ethyl}carbamate], the EC50 in assay [1] was 4 µM; in assay [2] it was 10.1 µM; in assay [3] it was 5.7 µM.

Take `NCCC(=O)Nc1cnc2nc(-c3cc(NC(=O)c4ccc(F)o4)ccc3Cl)[nH]c2c1` [Example 73, N-{3-[6-(3-aminopropanamido)-1H-imidazo[4,5-b]pyridin-2-yl]-4-chlorophenyl}-5-fluorofuran-2-carboxamide]: the EC50 was above 20 µM in assay [1], above 50 µM in assay [2] and above 25 µM in assay [3].

For `CC(C)C(=O)Nc1cnc2nc(-c3cc(NC(=O)c4ccco4)ccc3Cl)[nH]c2c1` [Example 10, N-{4-chloro-3-[6-(2-methylpropanamido)-1H-imidazo[4,5-b]pyridin-2-yl]phenyl}furan-2-carboxamide], the values for the EC50 in assay [1], in assay [2] and in assay [3] were 3.7 µM, 2.29 µM and 1.17 µM, respectively.

For the compound `Cc1nc(C)c(C(=O)Nc2cnc3nc(-c4cc(NC(=O)c5ccco5)ccc4Cl)[nH]c3c2)s1` [Example 5, N-{2-[2-chloro-5-(furan-2-amido)phenyl]-1H-imidazo[4,5-b]pyridin-6-yl}-2,4-dimethyl-1,3-thiazole-5-carboxamide], the EC50 in assay [1] is 1.86 µM; in assay [2], above 50 µM; in assay [3] it was 0.57 µM.

With `CC(C)S(=O)(=O)Nc1ccc(Cl)c(-c2nc3ncc(NS(=O)(=O)C(C)C)cc3[nH]2)c1` [Example 59, N-{2-[2-chloro-5-(propane-2-sulfonamido)phenyl]-1H-imidazo[4,5-b]pyridin-6-yl}propane-2-sulfonamide], the EC50 in assay [1] is above 20 µM; in assay [2] it was above 22.8 µM; in assay [3], above 25 µM.

In the case of `CC(C)CC(=O)Nc1cnc2nc(-c3cc(NC(=O)c4ccco4)ccc3Cl)[nH]c2c1` [Example 14, N-{4-chloro-3-[6-(3-methylbutanamido)-1H-imidazo[4,5-b]pyridin-2-yl]phenyl}furan-2-carboxamide], the EC50 amounted to 3.3 µM in assay [1], 3.3 µM in assay [2] and 4.5 µM in assay [3].

For `CNS(=O)(=O)Nc1cnc2nc(-c3cc(NC(=O)c4ccco4)ccc3Cl)[nH]c2c1` [Example 52, N-(4-chloro-3-{6-[(methylsulfamoyl)amino]-1H-imidazo[4,5-b]pyridin-2-yl}phenyl)furan-2-carboxamide], the EC50 in assay [1] was above 20 µM; in assay [2], 28.9 µM; in assay [3], above 25 µM.

Turning to `O=C(Nc1ccc(Cl)c(-c2nc3ncc([N+](=O)[O-])cc3[nH]2)c1)c1ccco1` [Example 8, N-(4-chloro-3-{6-nitro-1H-imidazo[4,5-b]pyridin-2-yl}phenyl)furan-2-carboxamide], the EC50 was 1.02 µM in assay [1], 12.4 µM in assay [2] and 0.96 µM in assay [3].

Consider `CCOC(=O)Nc1cnc2nc(-c3cc(NC(=O)c4ccc(C#N)o4)ccc3Cl)[nH]c2c1` [Example 61, ethyl N-{2-[2-chloro-5-(5-cyanofuran-2-amido)phenyl]-1H-imidazo[4,5-b]pyridin-6-yl}carbamate], for which the EC50 was above 20 µM in assay [1], 3.13 µM in assay [2] and 2.69 µM in assay [3].

Regarding `COCCC(=O)Nc1cnc2nc(-c3cc(NC(=O)c4ccco4)ccc3Cl)[nH]c2c1` [Example 19, N-{4-chloro-3-[6-(3-methoxypropanamido)-1H-imidazo[4,5-b]pyridin-2-yl]phenyl}furan-2-carboxamide], the concentration for a half-maximal effect (EC50) in assay [1] was above 20 µM; in assay [2], 25.5 µM; in assay [3] it was 13.3 µM.

For `COc1ccc(C(=O)Nc2ccc(Cl)c(-c3nc4ncc(NC(=O)OC(C)C)cc4[nH]3)c2)o1` [Example 39, propan-2-yl N-{2-[2-chloro-5-(5-methoxyfuran-2-amido)phenyl]-1H-imidazo[4,5-b]pyridin-6-yl}carbamate], the results for the EC50 in assay [1], in assay [2] and in assay [3] were 6.7 µM, 17.7 µM and 13.8 µM, respectively.

In the case of `NCC(=O)Nc1cnc2nc(-c3cc(NC(=O)c4ccco4)ccc3Cl)[nH]c2c1` [Example 33, N-{3-[6-(2-aminoacetamido)-1H-imidazo[4,5-b]pyridin-2-yl]-4-chlorophenyl}furan-2-carboxamide], the EC50 in assay [1] is 19.1 µM; in assay [2] it was above 50 µM; in assay [3] it was above 25 µM.

Regarding `O=C(Nc1ccc(Cl)c(-c2nc3ncc(NC(=O)C4CNC4)cc3[nH]2)c1)c1ccco1` [Example 62, N-{2-[2-chloro-5-(furan-2-amido)phenyl]-1H-imidazo[4,5-b]pyridin-6-yl}azetidine-3-carboxamide], the concentration for a half-maximal effect (EC50) in assay [1] is above 20 µM; in assay [2], above 28.8 µM; in assay [3], above 25 µM.

Take `O=C(Nc1cnc2nc(-c3cc(NC(=O)c4ccco4)ccc3Cl)[nH]c2c1)OCCF` [Example 53, 2-fluoroethyl N-{2-[2-chloro-5-(furan-2-amido)phenyl]-1H-imidazo[4,5-b]pyridin-6-yl}carbamate]: the EC50 in assay [1] came out at 3.2 µM; in assay [2] it was 1.74 µM; in assay [3], 1.31 µM.

Regarding `O=C(Nc1ccc(Cl)c(-c2nc3ncc(NC(=O)C4CCNCC4)cc3[nH]2)c1)c1ccco1` [Example 46, N-{2-[2-chloro-5-(furan-2-amido)phenyl]-1H-imidazo[4,5-b]pyridin-6-yl}piperidine-4-carboxamide], the EC50 in assay [1] was above 20 µM; in assay [2] it was above 50 µM; in assay [3], above 25 µM.
